Like-named read-outs stand apart in the source and are kept apart here.
Columns and labels:
[1] = biological target: Human Carboanhydrase I (Homo sapiens, UniProt P00915); assay: Carboanhydrase I inhibition (CO2 hydration); format: biochemical
Protocol: Carboanhydrases catalyze the CO2 hydration.
Test preparation: A constant CO2 stream is directed by a buffer that was mixed with carboanhydrase I. The time that is required to reduce the pH within defined limits is a measuring parameter. This parameter reflects the formation of H2CO3 in the medium. IC50 inhibiting values are determined by test substances being pipetted into the test preparation.

[2] = test system: erythrocytes; assay: Binding to erythrocytes: displacement of estradiol-3-sulfamate from the erythrocyte bond (RBA); design: species or system human; settings: for RBA in Erythrocytes: human blood, displacement of 14C-labeled estradiol sulfamate, estradiol-3-sulfamate = 100
Protocol: The SO2—NH2 group of the compounds according to the invention can result in a concentration in erythrocytes by binding to carboanhydrases. The displacement of estradiol-3-sulfamate from the erythrocyte bond by test substances is measured. Test preparation: human blood is mixed with a mixture that consists of ^14C-labeled and unlabeled estradiol sulfamate. The erythrocytes are saturated at the selected working point. The distribution in plasma/erythrocytes is 40:60. A second blood sample is mixed with a mixture that consists of ^14C-labeled estradiol sulfamate and unlabeled test substance. The relative binding affinity is calculated from the proportion of ^14C-labeled estradiol sulfamate in plasma: higher proportion=strong displacement of ^14C-estradiol sulfamate from the erythrocytes by the test substance=high binding affinity of the test substances to the erythrocytes.

[3] = Determination of the erythrocyte/plasma distribution ratio; format: in vitro ADME; settings: freshly obtained, heparinized blood
Protocol: Freshly obtained, heparinized blood is mixed with a defined amount of test substance. The concentration in the plasma obtained therefrom is measured. The erythrocyte/plasma distribution ratio is calculated from the measured concentration of the entire substance in plasma and the concentration that is used.

[4] = test system: gonadally intact, adult, sexually mature rats; assay: Test (III), oral treatment over 6 weeks; format: in vivo, rat
Protocol: (§1) • Method: Adult male rats, of about 300 g of body weight, are castrated and treated orally over 7 days with MENT and compound 12 according to the invention. On the 8th day of the test, the animals are sacrificed, and the hormonal effects of the test substances are evaluated (growth of the accessory sex glands, reduction of the gonadotropic hormones in plasma, parameters of hepatic actions: effects on HDL lipoproteins, determination of MENT in the plasma). Test (III) on Gonadally Intact Adult Sexually Mature Rats Over 6 Weeks
• Method: Adult male rats of above 300 g of body weight are treated orally over 6 weeks with MENT and compounds 12 or 5 according to the invention. At the end of the test, the animals are sacrificed, and the hormonal effects of the test substances are evaluated (weight of the testes and the accessory sex glands, reduction of the gonadotropic hormones and testosterone in the plasma during the course of the test, parameters of hepatic actions: effects on HDL lipoproteins).

[5] = test system: sexually immature, castrated male rats; assay: Test (I), oral treatment over 7 days, evaluation on day 8; format: in vivo, rat
Protocol: Test (I) on Sexually Immature, Castrated Male Rats Over 8 Days
Method: Male rats weighing about 45 g of body weight are castrated and treated orally over 7 days with MENT and with compounds 12 or 18 according to the invention. On the 8th day of the test, the animals are sacrificed, and the hormonal effects of the test substances are evaluated (growth of the accessory sex glands, reduction of gonadotropic hormones in plasma, parameters of hepatic actions: effects on HDL lipoproteins).

[6] = test system: sexually mature, castrated male rats; assay: Test (II), oral treatment over 7 days, evaluation on day 8; format: in vivo, rat
Protocol: Test (II) on Sexually Mature, Castrated Male Rats Over 8 Days
as §1

[7] = test system: accessory sex glands (prostate); assay: Hershberger Test (comparison of m- and p-substituted compound; test not specified); format: in vivo, rat; settings: m-substituted compound 12 compared to p-substituted compound 11

Chain of Human Carboanhydrase I (P00915 whole entry): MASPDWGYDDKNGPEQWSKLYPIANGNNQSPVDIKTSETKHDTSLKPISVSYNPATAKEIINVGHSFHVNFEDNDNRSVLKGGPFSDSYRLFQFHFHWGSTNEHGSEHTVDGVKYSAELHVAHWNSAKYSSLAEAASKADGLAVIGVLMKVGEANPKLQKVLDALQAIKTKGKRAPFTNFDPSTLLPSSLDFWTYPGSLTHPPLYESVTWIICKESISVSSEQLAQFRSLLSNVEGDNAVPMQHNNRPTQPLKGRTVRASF

Row | SMILES | IC50 [1] | RBA in Erythrocytes [2] | Distribution Ratio with Erythrocytes/Plasma [3] | growth of the accessory sex glands [5] | also measured
1 | C[C@]12CC[C@H]3[C@@H](CCC4=CC(=O)CC[C@@]43C)[C@@H]1CC[C@@H]2OC(=O)c1cccc(S(N)(=O)=O)c1 [Compound 5, 3-Oxoandrost-4-en-17β-yl 3′-sulfamoyl benzoate] | 880 nM | 1.3 | 2 |  | changes in hepatic parameters [4]: especially small changes in hepatic parameters
2 | C[C@]12CC[C@H]3[C@@H](CCC4=CC(=O)CC[C@@]43C)[C@@H]1CC[C@@H]2OC(=O)c1cc(S(N)(=O)=O)ccc1O [Compound 18, 3-Oxoandrost-4-en-17β-yl 2′-hydroxy-5′-sulfamoyl Benzoate] |  | 1.4 | 2 | strong dose-dependent effects on the growth of the accessory sex glands | 
3 | C[C@]12CC[C@H]3[C@@H](CCC4=CC(=O)CC[C@@]43C)[C@@H]1CC[C@@H]2OC(=O)CCc1ccc(S(N)(=O)=O)cc1 [Compound 14, 3-Oxoandrost-4-en-17β-yl 4′-sulfamoylphenylpropionate] |  | 3.4 | 4 |  | 
4 | C[C@]12CC[C@@H]3c4ccc(OS(N)(=O)=O)cc4CC[C@H]3[C@@H]1CC[C@@H]2O [Estradiol-3-sulfamate, reference compound] |  | 100 | 48 |  | 
5 | C[C@]12CC[C@H]3[C@@H](CCC4=CC(=O)CC[C@@]43C)[C@@H]1CC[C@@H]2OC(=O)c1ccc(S(N)(=O)=O)cc1 [Compound 1, 3-Oxoandrost-4-en-17β-yl 4′-sulfamoyl benzoate] | 370 nM | 48 | 9 |  | 
6 | C[C@@H]1CC2=CC(=O)CC[C@@H]2[C@H]2CC[C@]3(C)[C@@H](O)CC[C@H]3[C@@H]21 [MENT, 7α-methyl-19-nortestosterone, reference compound] |  |  |  | only marginal effects | reduction of HDL [5]: even more active than the substances according to the invention; growth of the accessory sex glands ([6]; oral, 7 days): only marginal effects; reduction of HDL ([6]; oral, 7 days): even more active than the substances according to the invention; effects on the accessory sex glands (weights of seminal vesicles and prostates) [4]: A corresponding effect even in the case of extremely high dosage did not occur; reduction of HDL [4]: even more effective than the substances according to the invention
7 | C[C@]12CC[C@H]3[C@@H](CCC4=CC(=O)CC[C@@H]43)[C@@H]1CC[C@@H]2OC(=O)c1ccc(S(N)(=O)=O)cc1 [Compound 8, 3-Oxoestr-4-en-17β-yl 4′-sulfamoyl benzoate] |  | 24 | 7 |  | 
8 | COc1ccc(S(N)(=O)=O)cc1C(=O)O[C@H]1CC[C@H]2[C@@H]3CCC4=CC(=O)CC[C@]4(C)[C@H]3CC[C@]12C [Compound 4, 3-Oxoandrost-4-en-17β-yl 2′-methoxy-5′-sulfamoyl benzoate] |  | 0.8 | 2 |  | 
9 | C[C@@H]1CC2=CC(=O)CC[C@@H]2[C@H]2CC[C@]3(C)[C@@H](OC(=O)c4ccc(S(N)(=O)=O)cc4)CC[C@H]3[C@@H]21 [Compound 11, 3-Oxo-7α-methylestr-4-en-17β-yl 4′-sulfamoyl benzoate] |  |  |  |  | IC50 ([1]; human carboanhydrase I, read-out: CAI IC50): 200 to 400 nM
10 | C[C@@H]1CC2=CC(=O)CC[C@@H]2[C@H]2CC[C@]3(C)[C@@H](OC(=O)c4cccc(S(N)(=O)=O)c4)CC[C@H]3[C@@H]21 [Compound 12, 3-Oxo-7α-methylestr-4-en-17β-yl 3′-sulfamoyl benzoate] | 600 nM | 2.1 | 3 | strong dose-dependent effects on the growth of the accessory sex glands | levels of MENT in the plasma ([6]; after oral administration): significantly higher levels of MENT are achieved in the plasma than after the administration of MENT itself; growth of the accessory sex glands ([6]; oral, 7 days): unexpectedly strong, dose-dependent effects on the growth of the accessory sex glands; activity in the Hershberger Test [7]: higher activity in the Hershberger Test compared to the p-substituted compound 11; bond strength to the erythrocytes (in words) ([2]; m-substituted versus 4'-sulfamoyl benzoates): lower bond strength to the erythrocytes; antigonadotropic effects [4]: Superior antigonadotropic effects; effects on the accessory sex glands (weights of seminal vesicles and prostates) [4]: induced in a dose-dependent way an increase of the weights of the seminal vesicles and prostates beyond the level of intact controls
